Patent publication US7402580B2, “Fused pyridazine derivative compounds and drugs containing these compounds as the active ingredient” (Ono Pharmaceutical Co., Ltd., priority 2002, dated 2008)

Each compound was assayed against T1, PARP (TREVIGEN) (Homo sapiens, UniProt P09874) (assay: Enzyme assay in vitro (PARP inhibitory activity, 3H-NAD incorporation)). Details: 50% inhibitory concentration, control (distilled water) = 100%; reaction 10 minutes at room temperature.
T1 construct: purchased TREVIGEN
T1 sequence (P09874 whole entry): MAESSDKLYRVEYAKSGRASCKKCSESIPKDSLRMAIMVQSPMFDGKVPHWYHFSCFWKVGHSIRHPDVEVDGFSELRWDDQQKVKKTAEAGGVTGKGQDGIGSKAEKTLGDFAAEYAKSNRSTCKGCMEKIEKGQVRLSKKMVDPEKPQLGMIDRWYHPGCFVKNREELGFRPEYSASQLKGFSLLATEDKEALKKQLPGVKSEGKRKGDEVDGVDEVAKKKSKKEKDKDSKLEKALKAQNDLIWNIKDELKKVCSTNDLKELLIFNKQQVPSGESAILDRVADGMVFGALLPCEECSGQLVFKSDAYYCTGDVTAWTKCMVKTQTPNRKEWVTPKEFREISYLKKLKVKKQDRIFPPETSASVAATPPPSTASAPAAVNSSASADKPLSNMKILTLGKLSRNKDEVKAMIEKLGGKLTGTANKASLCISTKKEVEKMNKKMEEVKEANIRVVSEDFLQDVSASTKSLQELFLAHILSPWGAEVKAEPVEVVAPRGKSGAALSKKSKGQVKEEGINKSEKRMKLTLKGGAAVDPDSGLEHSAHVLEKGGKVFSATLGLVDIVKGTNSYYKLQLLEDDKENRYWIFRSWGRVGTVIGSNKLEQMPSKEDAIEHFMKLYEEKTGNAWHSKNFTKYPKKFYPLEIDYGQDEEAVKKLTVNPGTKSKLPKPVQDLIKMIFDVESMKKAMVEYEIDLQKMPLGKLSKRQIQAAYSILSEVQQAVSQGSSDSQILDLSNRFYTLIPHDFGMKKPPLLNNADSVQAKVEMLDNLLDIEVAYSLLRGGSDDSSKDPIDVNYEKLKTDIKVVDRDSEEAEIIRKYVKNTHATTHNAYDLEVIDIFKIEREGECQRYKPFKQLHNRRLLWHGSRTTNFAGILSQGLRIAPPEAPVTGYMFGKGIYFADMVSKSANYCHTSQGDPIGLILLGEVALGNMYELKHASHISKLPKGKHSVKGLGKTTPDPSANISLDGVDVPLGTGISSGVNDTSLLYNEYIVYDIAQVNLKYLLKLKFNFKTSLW
Assay type: biochemical
Method: The below procedure was carried out with 96 well plate at room temperature. In a final volume of […], the reaction mixture contained each 10 μL of 500 mM Tris/HCl (pH 8.0, WAKO), 100 mM MgCl2, 50 mM dithiothreitol (sigma), 1 mg/mL activated DNA and 1 mM NAD (containing ^3H-NAD). The 10 μL of test compound was added to the reaction mixture and the reaction was started by addition of 10 μL of 0.1 U/μL PARP (TREVIGEN). The reaction was terminated at 10 minutes by addition of 100 μL of 20% trichloroacetic acid. Poly(ADP-ribose), which is the reaction product, was collected on a glass fiber filter (GF/C, PACKARD). The radioactivity was measured by topcount (PACKARD). Inhibitory activity of the compound was represented by 50% inhibitory concentration calculated as 100% of control (distilled water).

First: Nc1cc(N)cc(C2=NNC(=O)C3CSCCN23)c1 (stereo not drawn) [6(9), 4-(3,5-diaminophenyl)-6,7,9,9a-tetrahydro[1,4]thiazino[4,3-d][1,2,4]triazin-1(2H)-one]
Second: Nc1cccc(-c2n[nH]c(=O)c3c2NCCC3)c1 [11(4), 8-(3-aminophenyl)-2,3,4,6-tetrahydropyrido[2,3-d]pyridazin-5(1H)-one]
The IC50 of the first is 6.1-fold higher: 610 nM for the first, 100 nM for the second. The second is the more potent here.

Compound `NCCNC(=O)Cc1n[nH]c(=O)c2c1CCCC2` [30(4), 4-(N-(2-aminoethyl)carbamoylmethyl)-5,6,7,8-tetrahydrophthalazin-1(2H)-one] has an IC50 of 290 nM.
